Results taken from patent publication US5661136A, “2-halo-2'-fluoro ARA adenosines as antinoplastic agents” (priority 1994, dated 1997).

Key:
DNA polymerase α = molecular target: T1, DNA polymerase α (Homo sapiens, UniProt P09884); details: incorporated 5'-monophosphate; cited from earlier work
T1 sequence (P09884 1-1462): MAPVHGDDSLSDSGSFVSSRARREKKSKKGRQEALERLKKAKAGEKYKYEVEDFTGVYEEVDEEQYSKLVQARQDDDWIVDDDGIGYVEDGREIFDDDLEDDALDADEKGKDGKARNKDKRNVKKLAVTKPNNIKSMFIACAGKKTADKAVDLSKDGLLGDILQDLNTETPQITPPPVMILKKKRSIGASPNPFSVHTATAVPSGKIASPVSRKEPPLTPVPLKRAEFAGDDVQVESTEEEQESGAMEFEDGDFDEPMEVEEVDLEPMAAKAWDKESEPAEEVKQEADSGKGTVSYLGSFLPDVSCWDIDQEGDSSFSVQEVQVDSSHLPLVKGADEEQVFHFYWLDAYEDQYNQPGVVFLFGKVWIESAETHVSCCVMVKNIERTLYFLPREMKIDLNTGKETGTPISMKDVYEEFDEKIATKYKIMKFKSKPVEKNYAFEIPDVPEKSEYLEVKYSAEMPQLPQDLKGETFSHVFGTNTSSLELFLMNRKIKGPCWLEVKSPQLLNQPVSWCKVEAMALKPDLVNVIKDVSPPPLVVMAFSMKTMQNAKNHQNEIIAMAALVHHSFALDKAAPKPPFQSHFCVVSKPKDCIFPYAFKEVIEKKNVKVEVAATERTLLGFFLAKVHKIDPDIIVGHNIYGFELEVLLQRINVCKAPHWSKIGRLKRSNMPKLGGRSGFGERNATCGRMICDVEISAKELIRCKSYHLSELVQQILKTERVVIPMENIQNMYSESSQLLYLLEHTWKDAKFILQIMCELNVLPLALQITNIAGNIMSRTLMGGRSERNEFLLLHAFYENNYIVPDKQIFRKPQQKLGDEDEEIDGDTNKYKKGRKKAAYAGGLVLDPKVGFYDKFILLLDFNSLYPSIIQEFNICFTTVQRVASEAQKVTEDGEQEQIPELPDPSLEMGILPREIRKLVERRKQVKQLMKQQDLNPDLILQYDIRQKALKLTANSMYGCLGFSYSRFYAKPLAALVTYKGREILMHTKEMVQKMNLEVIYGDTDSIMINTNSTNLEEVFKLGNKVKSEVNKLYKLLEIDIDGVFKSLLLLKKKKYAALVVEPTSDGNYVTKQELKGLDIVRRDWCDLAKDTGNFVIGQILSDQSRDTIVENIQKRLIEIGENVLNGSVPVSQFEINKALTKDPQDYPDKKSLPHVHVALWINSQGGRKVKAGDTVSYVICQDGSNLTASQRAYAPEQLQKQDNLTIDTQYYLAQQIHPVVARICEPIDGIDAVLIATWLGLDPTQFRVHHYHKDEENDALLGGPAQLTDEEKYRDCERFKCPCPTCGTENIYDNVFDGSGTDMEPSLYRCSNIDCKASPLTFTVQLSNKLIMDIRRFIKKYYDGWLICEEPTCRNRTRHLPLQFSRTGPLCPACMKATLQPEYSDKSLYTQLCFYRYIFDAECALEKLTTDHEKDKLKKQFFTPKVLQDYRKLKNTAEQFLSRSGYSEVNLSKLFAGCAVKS

HIV (strain IIIB) = assay: Activity against HIV in cell culture; assay type: cell-based; details: CEM or MT cell lines in culture

**Q.** For `Nc1nc(Cl)nc2c1ncn2[C@H]1C[C@H](O)[C@@H](COP(=O)(O)O)O1` [2-chloro-2'-deoxyadenosine 5'monophosphate], which “inhibition of further elongation of the DNA chain after incorporation by DNA polymerase α” value (DNA polymerase α) is on record?
**A.** Its value is “did not inhibit the further elongation of the DNA chain to the degree that was seen with the incorporation of either”.

**Q.** With `Nc1nc(F)nc2c1ncn2[C@@H]1O[C@H](CO)C[C@@H]1F` [compound 4b, 2-Fluoro-9-(2-3-dideoxy-2-fluoro-β-D-arabinofuranosyl)-9H-purin-6-amine] as the molecule, how does the “activity against HIV (strain IIIB)” value (HIV (strain IIIB)) read?
**A.** The value was “slight activity”.
